Laboratory results: patent US9188595B2, “Alzheimer's disease diagnosis based on mitogen-activated protein kinase phosphorylation” (Blanchett Rockefeller Neurosciences Institute, priority 2001, dated 2015)

How the values were obtained:
Erk1/2 = assay: BK-stimulated Erk1/2 phosphorylation in skin fibroblasts (Western blot, normalized to total Erk1/2); format: cell-based, human; settings: 10 nM BK 5 min
Description: Banked AC and AD fibroblasts were grown to 80-100% confluence before they were “starved” in a serum-free DMEM overnight. Cells were treated with 10 nM BK at 37° C. for different intervals to establish a time course for BK effects. The same volume of PBS was added to a control flask of cells of each line. The reaction was terminated by removing the medium, rapidly rinsing the cells with pre-cooled PBS, pH 7.4, and transferring the flask onto dry ice/ethanol.
(§1) For inhibition studies, cells were preincubated with the following concentration of inhibitor at 37° C. for the intervals indicated: 2ABP (50 μM for 30 min); PP1 (10 μM for 15 min); Ly294002 (5 μM for 15 min); and BiSM-1 (5 μM for 15 min). A parallel control flask was incubated with an identical volume of DMSO vehicle. At the end of this incubation, the same inhibitor at the indicated concentration was added and followed immediately by BK to a final concentration of 10 nM. BK (10 nM) was also added to DMSO controls. Basal controls were cells to which neither BK nor inhibitors were added. After a 5-min incubation at 37° C., the reaction was terminated as above.
Cell lysates were prepared from cells of the various groups. Flasks were moved from dry ice/ethanol to ice water. Each flask received 1 ml of lysis buffer (10 mM Tris pH 7.4, 150 mM NaCl, 1 mM EDTA, 1 mM EGTA, pH 8, 0.5% NP-40, 1% Triton X-100, 1% protease inhibitor cocktail (Sigma), 1% cocktail of serine/threonine (Ser/Thr) phosphatase inhibitor and tyrosine (Tyr) phosphatase inhibitor (Sigma). After rocking on an end-to-end shaker in a cold room for 30 min, cells were collected from each flask with a cell scraper. […]
Cell lysates were boiled in an equal volume of 2× SDS-sample buffer for 10 min. […] Phosphorylated Erk1/2 was detected with anti-phospho-Erk1/2 antibody using the SuperSignal ECL detection kit. […]
Signals from phosphorylated and nonphosphorylated Erk1/2 (or CREB) were scanned with a Fuji film LAS-1000 Plus scanner. The mean optical density of each protein band was measured using NIH Image software. […]

CREB = assay: BK-stimulated CREB phosphorylation (Ser133) and total CREB in skin fibroblasts (Western blot); format: cell-based, human; settings: 10 nM BK 10 min; for Effect on expression of the CREB protein: 10 μM for 15 min
Description: FIGS. 5A, 5B1, 5B2, 5C1 and 5C2. Changes in phosphorylation of, and amounts of CREB after BK stimulation. AC and AD cells were treated with 10 nM BK for 5 or 10 min. Phosphorylated CREB (P-CREB) was measured using a anti-phospho-CREB-Serl33 antibody on Western blots. The mean densities of P-CREB were normalized against the total amount of CREB measured using an anti-“regular CREB” antibody and subjected to statistic analyses.
FIGS. 6A1, 6A2, 6B1, 6B2, 6C1 and 6C2. Effects of different inhibitors on BK-stimulated phosphorylation of CREB. AC and AD cells were preincubated at 37° C. for 15 min with 5 μM BiSM-1 (FIG. 6A), 10 μM PP1 (FIG. 6B), or 5 μM Ly294002 (FIG. 6C) before incubation with 10 nM BK for 10 min Nointalization was performed as with FIGS. 5A-5C and statistical significance of differences were evaluated by 2-way ANOVA. **p<0.0001; *p<0.05.
as §1
CREB was detected using analogous methods.
Signals from phosphorylated and nonphosphorylated Erk1/2 (or CREB) were scanned with a Fuji film LAS-1000 Plus scanner. The mean optical density of each protein band was measured using NIH Image software. Values from the phosph-Erk1/2 signals were normalized respectively against the total signal of Erk1/2. After normalization, data from treated cells was converted to a percentage of the basal control and subjected to statistical analyses.

[1] = AC and AD cells, preincubation 10 μM for 15 min

## CN(C)CCCn1cc(C2=C(c3c[nH]c4ccccc34)C(=O)NC2=O)c2ccccc21 [BiSM-1, bisindolylmaleimide-1]
Erk1/2; both AC and AD cells, preincubation 5 μM for 15 min
  Effect on BK-induced phosphorylation of Erk1/2: abolished
CREB; AC and AD cells (no group effect), preincubation 5 μM for 15 min
  Effect on BK-stimulated CREB phosphorylation: completely abolished

## O=c1cc(N2CCOCC2)oc2c(-c3ccccc3)cccc12 [LY294002]
Erk1/2; AD cells, preincubation 5 μM for 15 min
  Effect on BK-induced Erk1/2 phosphorylation: failed to inhibit

## Cc1ccc(-c2nn(C(C)(C)C)c3ncnc(N)c23)cc1 [PP1]
Erk1/2; [1]
  Effect on BK-induced Erk1/2 phosphorylation: completely inhibited
CREB; [1]
  Effect on BK-stimulated CREB phosphorylation: inhibited
CREB; AD cells
  Effect on expression of the CREB protein: not observed
CREB; control (AC) cells
  Effect on expression of the CREB protein: increased expression of the CREB protein
